Test results: patent US20050042661A1, “Use of novel compounds to release nucleotides from living cells” (priority 2003, published 2005)

Key:
[1] = test system: whole blood diluted with physiological saline 200 times; assay: Extraction efficiency test of ATP, whole blood; type: cell-based; details: Whole blood diluted 200 times
Description: (§1) The extraction efficiency of the release reagent based on a quaternary ethoxylated amine and an ethoxylated amine mixture was also tested against the boiling tris-EDTA buffer and the perchloric acid extraction methods. The samples consisted of whole blood diluted with physiological saline 200 times, a suspension of E. coli bacteria in concentration of one million cells per milliliter, and a suspension of green algae, Chlorella sp. […]
(§2) Measurement of ATP by bioluminescence: 100 microliter aliquots of extracted sample solution were pipetted into transparent glass cuvettes and these were placed into the light-tight reaction chamber of a photon counter. […] The light emission was integrated for 10 seconds and the results read on the digital display as relative light units. The relative light units were converted to ATP by internal standardization whereby a known quantity of ATP standard was added into an aliquot of the extracted sample and measured as above. […] By subtracting the reading of the sample from that of the sample+added ATP standard a conversion factor for relative light units to ATP was calculated.

E. coli bacteria = assay: Extraction efficiency test of ATP, E. coli suspension; type: cell-based; details: one million cells per milliliter
Description: as §1, §2

`[O-][Cl+3]([O-])([O-])O` [Perchloric acid method, perchloric acid] gave an ATP extraction efficiency [1] of 7% and an ATP extraction efficiency (E. coli bacteria) of 3%.
